From patent publication US20170290774A1, “NEUROKININ-1 RECEPTOR ANTAGONIST COMPOSITION FOR TREATMENT OF DISEASES AND CONDITIONS OF THE RESPIRATORY TRACT” (PLUS VITECH, S.L., priority 2014, published 2017)

How the values were obtained:
[1] = system: TGFα; assay: Immunohistochemistry of TGFα in respiratory tract tissue of sodium hypochlorite aerosol-treated rabbits; type: in vivo, New Zealand albino rabbits
Source text: (§1) It is known that the factors TGF-α, TGF-β 1, TGF-β 2, TGF-β 3, SPARC, MMP-3; MMP-7, MMP-9, MMP-11, MMP-13 and MMP-14, TGF-β, NF-kB, EGF, MMP-9, VEGF and TNF-α which are produced by lung cells (pneumocytes, fibroblasts and vascular endothelial cells) and inflammatory cells (macrophages, lymphocytes and polymorphonuclear leukocytes) are involved in the pathophysiology and development of said respiratory tract diseases. […] Herein, 27 New Zealand albino rabbits (New Zealand White Rabbit) with an initial average weight about 3 kg were used in this example. All subjects were administered an aerosol of a solution consisting of a mixture of water and sodium hypochlorite (35 g sodium hypochlorite per liter of water) at a rate of 5 mL of said solution by inhalation three times a day for 7 days (days 1 to 7 of experimentation). Subsequently, from days 3 to 7, a group of 3 rabbits (Group 1) was administered an oral dose of 10 mg/kg body weight per day, another group of 3 rabbits (Group 2) was administered an oral dose of 40 mg/kg body weight per day, a third group (Group 3) was administered an oral dose of 80 mg/kg body weight per day and a fourth group (Group 4) was administered an oral dose of 100 mg/kg body weight per day. […] This mixture was administered as an aerosol by inhalation, also from days 3 to 7, to a group of 3 rabbits (group 5) at a dose of 0.05 mg/kg body weight per day, to another group of three rabbits (Group 6) at a dose of 0.1 mg/kg body weight per day, to another group of three rabbits (Group 7) at a dose of 0.2 mg/kg body weight per day and to another group of three rabbits (Group 8) at a dose of 0.4 mg/kg body weight per day. A placebo consisting only of olive oil was administered from days 3 to 7 to a control group of 3 rabbits (placebo group). In parallel, 3 rabbits were kept under identical conditions but were not administered any treatment nor the aforementioned sodium hypochlorite solution (control group). […] On day 7 of the experiment all animals were euthanized and necropsied. […] Samples were taken at the peripheral level of the lung parenchyma, just below the pleural surface. Tissue samples were also taken from the nasal cavity, pharynx, larynx and bronchi. Immunohistochemistry studies were performed for all samples to evaluate the levels of the markers TGF-α, TGF-β 1, TGF-β 2, TGF-β 3 SPARC, MMP-3; MMP-7, MMP-9, MMP-11, MMP-14, TGF-β, TNF-α and VEGF. In said immunohistochemistry studies, a sample of each sample was dehydrated by treatment with increasing concentrations of ethanol and finally xylene. Subsequently said dried samples were embedded in paraffin, thus creating a block. Said paraffin blocks were cut on a microtome to a thickness of 5 μm, and the resulting sections (slices) were placed on slides suitable for conducting immunohistochemistry techniques. Subsequently, the sections were deparaffinised by immersion in xylene and then rehydrated through immersion in a series of solutions containing decreasing concentrations of ethanol and, finally, water. […] The samples were then allowed to cool to room temperature over 10 minutes. Endogenous peroxidase activity was blocked by treatment with 3% hydrogen peroxide over 30 min at room temperature. […] In order to verify the expression of NK1 receptors, the cell samples were incubated in the presence of anti-NK1 antibodies ([…], Sigma-Aldrich) diluted 1:1000 at 4° C. overnight. After this time they were washed in 0.05M Tris buffer at room temperature. Subsequently, Envision System-HRP (Dako) reagents were added for 30 min at room temperature. Once this time had expired, the samples were again washed with 0.05 M Tris buffer, and immunoreactivity was visualized by light microscopy with a chromogenic solution with 3,3'-diaminobenzidine (DAB+; Dako, USA). In order to differentiate the cell nuclei, these were lightly stained with haematoxylin. Samples that were not incubated with the primary antibody, but wherein this was replaced by a non-immune serum were used as negative controls. […]

[2] = system: MMP-11; assay: Immunohistochemistry of MMP-11 in respiratory tract tissue of sodium hypochlorite aerosol-treated rabbits; type: in vivo, New Zealand albino rabbits
Source text: as §1

[3] = bronchial tissue, Group 1, oral 10 mg/kg per day
[4] = bronchial tissue, Group 2, oral 40 mg/kg per day
[5] = bronchial tissue, Group 3, oral 80 mg/kg per day
[6] = bronchial tissue, Group 4, oral 100 mg/kg per day
[7] = laryngeal tissue, Group 1, oral 10 mg/kg per day
[8] = laryngeal tissue, Group 2, oral 40 mg/kg per day
[9] = laryngeal tissue, Group 3, oral 80 mg/kg per day
[10] = laryngeal tissue, Group 4, oral 100 mg/kg per day
[11] = laryngeal tissue, Group 5, inhalation 0.05 mg/kg per day
[12] = laryngeal tissue, Group 6, inhalation 0.1 mg/kg per day
[13] = laryngeal tissue, Group 7, inhalation 0.2 mg/kg per day
[14] = laryngeal tissue, Group 8, inhalation 0.4 mg/kg per day
[15] = lung tissue, Group 1, oral 10 mg/kg per day
[16] = lung tissue, Group 2, oral 40 mg/kg per day
[17] = lung tissue, Group 3, oral 80 mg/kg per day
[18] = lung tissue, Group 4, oral 100 mg/kg per day
[19] = lung tissue, Group 6, inhalation 0.1 mg/kg per day
[20] = lung tissue, Group 7, inhalation 0.2 mg/kg per day
[21] = lung tissue, Group 8, inhalation 0.4 mg/kg per day
[22] = nasal cavity tissue, Group 1, oral 10 mg/kg per day
[23] = nasal cavity tissue, Group 2, oral 40 mg/kg per day
[24] = nasal cavity tissue, Group 3, oral 80 mg/kg per day
[25] = nasal cavity tissue, Group 4, oral 100 mg/kg per day
[26] = nasal cavity tissue, Group 5, inhalation 0.05 mg/kg per day
[27] = nasal cavity tissue, Group 6, inhalation 0.1 mg/kg per day
[28] = nasal cavity tissue, Group 7, inhalation 0.2 mg/kg per day
[29] = nasal cavity tissue, Group 8, inhalation 0.4 mg/kg per day
[30] = pharyngeal tissue, Group 1, oral 10 mg/kg per day
[31] = pharyngeal tissue, Group 2, oral 40 mg/kg per day
[32] = pharyngeal tissue, Group 3, oral 80 mg/kg per day
[33] = pharyngeal tissue, Group 4, oral 100 mg/kg per day
[34] = pharyngeal tissue, Group 5, inhalation 0.05 mg/kg per day
[35] = pharyngeal tissue, Group 6, inhalation 0.1 mg/kg per day
[36] = pharyngeal tissue, Group 7, inhalation 0.2 mg/kg per day
[37] = pharyngeal tissue, Group 8, inhalation 0.4 mg/kg per day

C[C@@H](OC1OCCN(Cc2nc(=O)[nH][nH]2)C1c1ccc(F)cc1)c1cc(C(F)(F)F)cc(C(F)(F)F)c1 (stereo in doubt) [Aprepitant, 5-([(2R,3S)-2-((R)-1-[3,5-bis(trifluoromethyl)phenyl]ethoxy)-3-(4-fluorophenyl)morpholino]methyl)-1H-1,2,4-triazol-3(2H)-one]
Percent increase in TGFα with respect to the control group [1, 3]: 1,980.45%
Percent increase in TGFα with respect to the control group [1, 4]: 1,540.45%
Percent increase in TGFα with respect to the control group [1, 5]: 1,190.45%
Percent increase in TGFα with respect to the control group [1, 6]: 873.34%
% Med G5/C: percent increase in marker TGFα with respect to the control group ([1]; bronchial tissue, Group 5): 1,875.75%
% Med G6/C: percent increase in marker TGFα with respect to the control group ([1]; bronchial tissue, Group 6): 1,267.45%
% Med G7/C: percent increase in marker TGFα with respect to the control group ([1]; bronchial tissue, Group 7): 689.78%
% Med G8/C: percent increase in marker TGFα with respect to the control group ([1]; bronchial tissue, Group 8): 209.45%
Percent increase in TGFα with respect to the control group [1, 7]: 1,875.56%
Percent increase in TGFα with respect to the control group [1, 8]: 1,500.45%
Percent increase in TGFα with respect to the control group [1, 9]: 1,320.32%
Percent increase in TGFα with respect to the control group [1, 10]: 1,101.28%
Percent increase in TGFα with respect to the control group [1, 11]: 1,820.45%
Percent increase in TGFα with respect to the control group [1, 12]: 1,250.74%
Percent increase in TGFα with respect to the control group [1, 13]: 783.78%
Percent increase in TGFα with respect to the control group [1, 14]: 234.67%
Percent increase in TGFα with respect to the control group [1, 15]: 1,717.76%
Percent increase in TGFα with respect to the control group [1, 16]: 1,308.73%
Percent increase in TGFα with respect to the control group [1, 17]: 1,257.29%
Percent increase in TGFα with respect to the control group [1, 18]: 1,195.15%
Percent increase in TGFα with respect to the control group [1, 19]: 937.00%
Percent increase in TGFα with respect to the control group [1, 20]: 402.39%
Percent increase in TGFα with respect to the control group [1, 21]: 147.11%
Percent increase in TGFα with respect to the control group [1, 22]: 2,824.89%
Percent increase in TGFα with respect to the control group [1, 23]: 1,907.98%
Percent increase in TGFα with respect to the control group [1, 24]: 1,347.22%
Percent increase in TGFα with respect to the control group [1, 25]: 952.16%
Percent increase in TGFα with respect to the control group [1, 26]: 2,908.21%
Percent increase in TGFα with respect to the control group [1, 27]: 764.46%
Percent increase in TGFα with respect to the control group [1, 28]: 495.68%
Percent increase in TGFα with respect to the control group [1, 29]: 156.67%
Percent increase in TGFα with respect to the control group [1, 30]: 2,274.76%
Percent increase in TGFα with respect to the control group [1, 31]: 1,907.77%
Percent increase in TGFα with respect to the control group [1, 32]: 1,780.45%
Percent increase in TGFα with respect to the control group [1, 33]: 1,550.34%
Percent increase in TGFα with respect to the control group [1, 34]: 1,946.43%
Percent increase in TGFα with respect to the control group [1, 35]: 1,364.46%
Percent increase in TGFα with respect to the control group [1, 36]: 699.78%
Percent increase in TGFα with respect to the control group [1, 37]: 101.34%
Percent increase in MMP-11 with respect to the control group [2, 3]: 784.45%
Percent increase in MMP-11 with respect to the control group [2, 4]: 673.45%
Percent increase in MMP-11 with respect to the control group [2, 5]: 563.45%
Percent increase in MMP-11 with respect to the control group [2, 6]: 453.34%
% Med G5/C: percent increase in marker MMP-11 with respect to the control group ([2]; bronchial tissue, Group 5): 653.23%
% Med G6/C: percent increase in marker MMP-11 with respect to the control group ([2]; bronchial tissue, Group 6): 438.43%
% Med G7/C: percent increase in marker MMP-11 with respect to the control group ([2]; bronchial tissue, Group 7): 342.56%
% Med G8/C: percent increase in marker MMP-11 with respect to the control group ([2]; bronchial tissue, Group 8): 159.42%
Percent increase in MMP-11 with respect to the control group [2, 7]: 789.61%
Percent increase in MMP-11 with respect to the control group [2, 8]: 576.17%
Percent increase in MMP-11 with respect to the control group [2, 9]: 456.89%
Percent increase in MMP-11 with respect to the control group [2, 10]: 324.89%
Percent increase in MMP-11 with respect to the control group [2, 11]: 768.34%
Percent increase in MMP-11 with respect to the control group [2, 12]: 504.34%
Percent increase in MMP-11 with respect to the control group [2, 13]: 203.23%
Percent increase in MMP-11 with respect to the control group [2, 14]: 167.36%
Percent increase in MMP-11 with respect to the control group [2, 15]: 522.19%
Percent increase in MMP-11 with respect to the control group [2, 16]: 416.18%
Percent increase in MMP-11 with respect to the control group [2, 17]: 339.86%
Percent increase in MMP-11 with respect to the control group [2, 18]: 251.62%
Percent increase in MMP-11 with respect to the control group ([2]; lung tissue, Group 5, inhalation 0.05 mg/kg per day): 520.05%
Percent increase in MMP-11 with respect to the control group [2, 19]: 222.75%
Percent increase in MMP-11 with respect to the control group [2, 20]: 169.57%
Percent increase in MMP-11 with respect to the control group [2, 21]: 128.28%
Percent increase in MMP-11 with respect to the control group [2, 22]: 1,023.73%
Percent increase in MMP-11 with respect to the control group [2, 23]: 609.60%
Percent increase in MMP-11 with respect to the control group [2, 24]: 392.70%
Percent increase in MMP-11 with respect to the control group [2, 25]: 270.95%
Percent increase in MMP-11 with respect to the control group [2, 26]: 1,215.12%
Percent increase in MMP-11 with respect to the control group [2, 27]: 489.76%
Percent increase in MMP-11 with respect to the control group [2, 28]: 266.47%
Percent increase in MMP-11 with respect to the control group [2, 29]: 133.33%
Percent increase in MMP-11 with respect to the control group [2, 30]: 1,387.65%
Percent increase in MMP-11 with respect to the control group [2, 31]: 1,980.45%
Percent increase in MMP-11 with respect to the control group [2, 32]: 980.34%
Percent increase in MMP-11 with respect to the control group [2, 33]: 670.45%
Percent increase in MMP-11 with respect to the control group [2, 34]: 1,324.23%
Percent increase in MMP-11 with respect to the control group [2, 35]: 904.21%
Percent increase in MMP-11 with respect to the control group [2, 36]: 529.34%
Percent increase in MMP-11 with respect to the control group [2, 37]: 109.43%
